Assay results as given in ChEMBL document CHEMBL1201862, “PubChem BioAssay data set” (2004).
Calls of active or inactive are those of the source.

How the values were obtained:
[1] = biological target: T1, Rac GTPase-activating protein 1 (Homo sapiens, UniProt Q9H0H5); experiment: blockers of MgcRacGAP-driven Rac1 GTP hydrolysis – biochemical, ADP Hunter fluorescence, primary and confirmatory, confirmation (AID 624330); type: functional
T1 sequence (Q9H0H5 whole entry): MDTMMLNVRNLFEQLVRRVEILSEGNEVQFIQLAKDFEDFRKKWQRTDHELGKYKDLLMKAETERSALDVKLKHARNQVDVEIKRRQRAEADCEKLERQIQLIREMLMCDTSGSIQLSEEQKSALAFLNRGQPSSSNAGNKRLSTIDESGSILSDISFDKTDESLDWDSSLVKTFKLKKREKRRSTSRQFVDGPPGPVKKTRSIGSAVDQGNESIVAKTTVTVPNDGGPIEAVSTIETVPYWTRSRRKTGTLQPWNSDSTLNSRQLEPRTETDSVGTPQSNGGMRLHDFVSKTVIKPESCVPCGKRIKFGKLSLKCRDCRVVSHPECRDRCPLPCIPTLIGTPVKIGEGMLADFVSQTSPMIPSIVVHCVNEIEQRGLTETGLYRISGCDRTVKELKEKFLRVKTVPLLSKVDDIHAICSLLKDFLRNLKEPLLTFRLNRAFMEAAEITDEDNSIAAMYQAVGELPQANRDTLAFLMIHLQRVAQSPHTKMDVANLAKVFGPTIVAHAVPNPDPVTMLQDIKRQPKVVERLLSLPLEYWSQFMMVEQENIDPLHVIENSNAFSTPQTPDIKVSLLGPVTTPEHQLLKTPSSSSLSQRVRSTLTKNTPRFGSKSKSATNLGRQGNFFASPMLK

[2] = biological target: T2, Oxysterols receptor LXR-beta (Homo sapiens, UniProt P55055); type: functional, cell-based;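 further: agonist activity at LXR measured by a cell-based luminescence readout across a dose range, run as a counterscreen for daf-12 agonists; HEK293 cells with Gal4-LXR fusion and GAL4-driven luciferase reporter; potency for activation of Gal4-LXR reporter so compounds are agonists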
T2 sequence (P55055 whole entry): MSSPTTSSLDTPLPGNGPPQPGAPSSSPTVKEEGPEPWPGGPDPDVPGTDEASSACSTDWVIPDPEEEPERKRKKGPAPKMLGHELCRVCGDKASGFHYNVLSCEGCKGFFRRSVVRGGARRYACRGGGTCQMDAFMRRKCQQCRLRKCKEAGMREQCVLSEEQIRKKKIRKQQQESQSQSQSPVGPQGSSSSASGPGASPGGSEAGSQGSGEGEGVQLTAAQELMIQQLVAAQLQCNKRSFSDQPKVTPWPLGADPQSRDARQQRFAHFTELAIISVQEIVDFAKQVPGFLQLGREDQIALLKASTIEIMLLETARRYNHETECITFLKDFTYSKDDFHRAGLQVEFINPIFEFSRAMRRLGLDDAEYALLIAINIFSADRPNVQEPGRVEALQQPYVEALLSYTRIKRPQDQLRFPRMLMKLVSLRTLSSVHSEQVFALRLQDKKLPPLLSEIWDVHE

[3] = cells; type: functional, cell-based
[4] = biological target: T3, Nuclear receptor subfamily 0 group B member 1 (Homo sapiens, UniProt P51843); type: functional, cell-based;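 further: HEK293T cells transfected with SF-1 and DAX-1 plus StAR promoter luciferase reporter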
T3 sequence (P51843 whole entry): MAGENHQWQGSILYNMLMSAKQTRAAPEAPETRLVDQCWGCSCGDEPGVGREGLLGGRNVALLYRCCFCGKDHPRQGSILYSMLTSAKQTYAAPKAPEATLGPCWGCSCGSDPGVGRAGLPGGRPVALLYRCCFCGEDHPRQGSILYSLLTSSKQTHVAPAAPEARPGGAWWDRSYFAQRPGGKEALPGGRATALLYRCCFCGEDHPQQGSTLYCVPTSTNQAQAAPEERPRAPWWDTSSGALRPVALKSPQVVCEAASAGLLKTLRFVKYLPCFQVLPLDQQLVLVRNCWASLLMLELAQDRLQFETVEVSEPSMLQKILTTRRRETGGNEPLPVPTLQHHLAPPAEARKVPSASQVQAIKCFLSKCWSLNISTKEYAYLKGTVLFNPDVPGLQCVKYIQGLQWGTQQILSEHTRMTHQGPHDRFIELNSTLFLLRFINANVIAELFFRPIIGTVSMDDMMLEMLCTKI

[5] = viability loss in LCL cells – cell-based, plate reader, dry powder, set 2, cytotoxicity control, dose response (AID 624367); type: functional
[6] = biological target: Disintegrin and metalloproteinase domain-containing protein 17 (Homo sapiens, UniProt P78536); experiment: inhibition of ADAM17 substrate cleavage – biochemical, quenched FRET substrate, counter-screen for ADAM10 exosite inhibitor project, dose response (AID 743253)
[7] = COV434 cell viability loss – plate reader, dry powder, SA7, cytotoxicity control for PAX8 inhibitor project, dose response (AID 743145); type: functional, cell-based
[8] = growth inhibition of PfATP4-mutant resistant parasites – NITD609-resistant line, SYBR Green, dry powder, dose response (AID 1159571); type: functional, cell-based;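 further: parasites synchronized at ring stage by sorbitol before testing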
[9] = Dd2 malaria parasite growth inhibition potency – SYBR Green, dry powder samples, dose response (AID 1159566); type: functional, cell-based;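 further: potency for growth inhibition with lower SYBR green DNA signal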
[10] = toxicity toward immortalized ovarian surface epithelium – cell-based, plate reader, dry powder samples, cytotoxicity control for PAX8 inhibitor project, dose response (AID 743045); type: functional
[11] = toxicity to human hepatoma HepG2 cells – cell-based, cherry-picked samples, cytotoxicity control, dose response (AID 1159577); type: functional
[12] = COV362 cell viability loss – plate reader, dry powder, SA12, cytotoxicity control for PAX8 inhibitor project, dose response (AID 743144); type: functional, cell-based
[13] = OV-90 cell viability loss – plate reader, dry powder, SA8, PAX8 inhibitor project, dose response (AID 743149); type: functional, cell-based
[14] = IGROV1 cell killing – plate reader, dry powder samples, PAX8 inhibitor project, dose response (AID 743043); type: functional, cell-based; settings: IGROV-1
[15] = PAX5 cellular inhibition readout – cell-based, plate reader, dry powder samples, selectivity assay for PAX8 inhibitor project, dose response (AID 743047); type: functional;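 further: HEK293 cells carrying a Pax5 driven CD19 promoter luciferase reporter; potency of inhibitors that lower reporter luminescence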
[16] = PAX8-dependent cell viability loss – plate reader, dry powder, dose response (AID 743049); type: functional, cell-based
[17] = OVCAR8 cell viability loss – plate reader, dry powder samples, PAX8 project, dose response (AID 743197); type: functional, cell-based; settings: OVCAR-8
[18] = OVCAR4 cell viability loss – plate reader, dry powder, SA11, cytotoxicity control for PAX8 inhibitor project, dose response (AID 743150); type: functional, cell-based; settings: OVCAR-4
[19] = growth inhibition of yeast DHODH-expressing 3D7 parasites – SYBR Green, dry powder samples, dose response (AID 1159570); type: functional, cell-based;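 further: parasite growth measured after 72 hours of compound exposure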
[20] = toxicity to human HepG2 hepatoma cells – cell-based, plate reader, dry powder samples, cytotoxicity control, dose response (AID 1159569); type: functional;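 further: inhibitor potency with signal falling toward the positive control level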
[21] = inhibitors acting on PAX2 in cells – cell-based, plate reader, dry powder samples, selectivity assay for PAX8 inhibitor project, dose response (AID 743048); type: functional;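 further: HEK293 cells carrying a WT1 promoter luciferase reporter driven by expressed Pax2; potency is for inhibition of Pax2 driven reporter signal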
[22] = OVCAR-3 cell viability loss – plate reader, dry powder samples, PAX8 inhibitor project, dose response (AID 743044); type: functional, cell-based
[23] = P. falciparum Dd2 growth inhibitors, dose response, SYBR Green, cherry-picked samples (AID 1159567); type: functional, cell-based
[24] = biological target: Paired box protein Pax-8 (Homo sapiens, UniProt Q06710); experiment: PAX8 transcriptional activity inhibition in RMG-I – RMG-I cells, luciferase, cherry-pick, dose response (AID 687027); type: functional, cell-based;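 further: luciferase reporter driven by Pax8 target thyroperoxidase promoter measured by SteadyGlo luminescence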
[25] = biological target: Peroxisome proliferator-activated receptor gamma/Nuclear receptor coactivator 2 (Homo sapiens, UniProt P37231); experiment: (§1) TR-FRET dose response biochemical High Throughput Screening assay for agonists of the steroid receptor coactivator 2 (SRC-2) recruitment by the peroxisome proliferator-activated receptor gamma (PPAR gamma): non-selective agonists. [Related pubchem assays: 1297, 1032 ]; type: functional
[26] = cells
[27] = biological target: Peroxisome proliferator-activated receptor gamma/Nuclear receptor coactivator 3 (Homo sapiens, UniProt P37231); experiment: as §1, with “3 (SRC-3)” for “2 (SRC-2)”, “1301 (Confirmation screen.), 1048 (Primary screen.)]” for “1297, 1032 ]”; type: functional
[28] = biological target: Peroxisome proliferator-activated receptor gamma/Nuclear receptor coactivator 1 (Homo sapiens, UniProt P37231); experiment: as §1, with “1 (SRC-1)” for “2 (SRC-2)”, “assays (depositor defined):AID1300, AID1808, AID504735, AID631]” for “assays: 1297, 1032 ]”; type: protein assay
[29] = biological target: Major prion protein (Homo sapiens, UniProt P04156); type: functional, cell-based
[30] = potency of ADAM10 substrate cleavage blockers – biochemical, QFRET, dose response (AID 743254);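 further: ADAM10 enzyme with the DM2 quenched FRET peptide as substrate; EDANS fluorescence gain as the protease cuts the substrate; inhibitor potency against ADAM10 proteolytic activity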

Q: With `Nc1ccc2c(c1)Cc1cc(N)c(Cl)cc1-2` as the molecule, how does the IC50 [1] read?
A: 8.46 µM (active)

Q: And the EC50 [2]?
A: > 67.4 µM (inactive)

Q: What does the source list for `COc1ccc2oc(C(=O)NCC3CCCO3)c(C)c2c1` (stereo not drawn)?
A: IC50 [3]: > 67.6 µM (inactive); IC50 [4]: > 67.6 µM (inactive)

Q: Which AbsAC35 [5] does the source give for `CN1C(=O)c2cc(NC(=O)c3ccc(C(F)(F)F)cc3)ccc2OC[C@H]2O[C@@H](CC(=O)NC3Cc4ccccc4C3)CC[C@H]21` here?
A: 40.05 µM

Q: For `Cc1noc(C)c1-c1ccc(C(=O)Nc2ccccc2)c2occc12`, which IC50 [3] is on record?
A: > 67.5 µM (inactive)

Q: And the IC50 [4]?
A: > 2.5 µM (active)

Q: Which IC50 [6] does the source give for `CCc1ccc(-c2cn(C3CCCCC3)c(=S)[nH]2)cc1` here?
A: > 69.5 µM (inactive)

Q: For `COc1ccccc1C#Cc1ccc([C@H]2[C@@H](CO)N(C(=O)C3CCCCC3)[C@H]2C#N)cc1`, which AC50 [7] is on record?
A: 20.6 µM (active)

Q: What about the AC50 [8] of the same molecule?
A: 1.53 µM (active)

Q: What about the AC50 [9] of the same molecule?
A: 0.684 µM (active)

Q: What about the AC50 [10] of the same molecule?
A: 42.5 µM (active)

Q: And the AC50 [11]?
A: > 39 µM (inactive)

Q: And the AC50 [12]?
A: 36.4 µM (active)

Q: And the AC50 [13]?
A: 28.6 µM (active)

Q: And the AC50 [14]?
A: 44.8 µM (active)

Q: What about the AC50 [15] of the same molecule?
A: 6.15 µM (active)

Q: And the AC50 [16]?
A: 12.2 µM (active)

Q: What about the AC50 [17] of the same molecule?
A: 60.8 µM (active)

Q: What about the AC50 [18] of the same molecule?
A: 63.6 µM (active)

Q: What about the AC50 [19] of the same molecule?
A: 1.19 µM (active)

Q: What about the AC50 [20] of the same molecule?
A: 35.2 µM (active)

Q: And the AC50 [21]?
A: 9.82 µM (active)

Q: And the AC50 [22]?
A: 18.9 µM (active)

Q: And the AC50 [23]?
A: 1.36 µM (active)

Q: What about the AC50 [24] of the same molecule?
A: 3.4 µM (active)

Q: For `C#CCn1/c(=N/C(=O)c2ccc(Br)s2)sc2cccc(OC)c21`, which EC50 [25] is on record?
A: 10.6 µM (not active)

Q: And the IC50 [26]?
A: 48.6 µM (inactive)

Q: What about the EC50 [27] of the same molecule?
A: 18.1 µM (not active)

Q: And the EC50 [28]?
A: 10.3 µM (inactive)

Q: And the IC50 [29]?
A: 2.6 µM (active)

Q: What does the source list for `CC1(Cc2ccc(C(F)(F)F)o2)C(=O)Nc2ccc(-c3cccc(C(F)(F)F)c3)cc21` (stereo not drawn)?
A: IC50 [6]: > 69.6 µM (inactive); IC50 [30]: 11.3 µM (inactive)
